Source: BindingDB's records for patent US11161864 (Venenum Biodesign, 2021)

Biological target: T1, Stimulator of interferon genes protein [154-378] (Mus musculus, UniProt Q3TBT3)
T1 construct: 154-378
T1 sequence (Q3TBT3 whole entry): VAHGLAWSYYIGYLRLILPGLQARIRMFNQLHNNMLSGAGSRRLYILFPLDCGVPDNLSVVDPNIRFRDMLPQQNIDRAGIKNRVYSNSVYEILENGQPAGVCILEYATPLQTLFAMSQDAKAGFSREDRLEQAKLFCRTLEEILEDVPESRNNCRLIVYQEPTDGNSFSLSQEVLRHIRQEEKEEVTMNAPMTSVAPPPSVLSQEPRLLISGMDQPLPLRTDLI
Experiment: Binding Assay

SMILES: NC(=O)c1cnc2c(c1)nc1n2CCOP(=O)(S)OC[C@H]2O[C@@H](n3cnc4c(=O)[nH]c(N)nc43)[C@H](OP(=O)(S)OC1)[C@@H]2F (stereo partly specified) [US11161864, Example 37A]
- IC50: < 1000 nM
